Laboratory results: patent CN113214121A, “一种格列本脲-精氨酸共无定型” (Jiangsu Hengrui Medicine Co Ltd, priority 2020, dated 2021)
≈ marks a conversion by molar mass, not a printed value. Where two headings read alike, the source gives them in different places.

Legend:
[1] = Content of glyburide and arginine dissolved in the filtered supernatant, Example 2; format: physicochemical; details: 8mg glyburide + 8mg arginine in 10mL water, supersaturated solution at 60℃, 0.45um filter
[2] = 100mg glyburide (form A) + 36mg arginine in 10mL water, room temperature, stirred overnight, 0.45um filter
[3] = 25℃; cited from earlier work

solubility [1] [µg/mL] | SMILES | arginine content in supernatant [1] [mg/mL] | arginine content in supernatant [2] [mg/mL] | solubility in water [3] [µg/mL]
 | N=C(N)NCCCC(N)C(=O)O (stereo not shown) [精氨酸] | 0.8 | 3.50 | 
800 | COc1ccc(Cl)cc1C(=O)NCCc1ccc(S(=O)(=O)NC(=O)NC2CCCCC2)cc1 [格列本脲, N-[2-[4-[[[(环己氨基)羰基]氨基]磺酰基]苯基]乙基]-2-甲氧基-5-氯苯甲酰胺] |  |  | 100 (≈ 202 µM)
